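The compound was tested at five concentrations on cells cultured in 96-well plates, with a 48-hour exposure period. TGI: total growth inhibition.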
Experiments:
Assay in all cases: NCI tumour cell line growth inhibition, 48 h
786-0 renal = tested on: 786-0 renal
A498 renal = tested on: A498 renal
A549 NSCLC = tested on: A549 NSCLC
ACHN renal = tested on: ACHN renal
CAKI-1 renal = tested on: CAKI-1 renal
CCRF-CEM leukemia = tested on: CCRF-CEM leukemia
DLD-1 colon = tested on: DLD-1 colon
DMS 114 small cell lung = tested on: DMS 114 small cell lung
DMS 273 small cell lung = tested on: DMS 273 small cell lung
EKVX NSCLC = tested on: EKVX NSCLC
HCC-2998 colon = tested on: HCC-2998 colon
HCT-116 colon = tested on: HCT-116 colon
HCT-15 colon = tested on: HCT-15 colon
HL-60(TB) leukemia = tested on: HL-60(TB) leukemia
HOP-18 NSCLC = tested on: HOP-18 NSCLC
HOP-62 NSCLC = tested on: HOP-62 NSCLC
HOP-92 NSCLC = tested on: HOP-92 NSCLC
HT29 colon = tested on: HT29 colon
IGROV1 ovarian = tested on: IGROV1 ovarian
K-562 leukemia = tested on: K-562 leukemia
KM12 colon = tested on: KM12 colon
KM20L2 colon = tested on: KM20L2 colon
LOX IMVI melanoma = tested on: LOX IMVI melanoma
LXFL 529 NSCLC = tested on: LXFL 529 NSCLC
M14 melanoma = tested on: M14 melanoma
M19-MEL melanoma = tested on: M19-MEL melanoma
MALME-3M melanoma = tested on: MALME-3M melanoma
MOLT-4 leukemia = tested on: MOLT-4 leukemia
NCI-H226 lung = tested on: NCI-H226 lung
NCI-H23 lung = tested on: NCI-H23 lung
NCI-H460 lung = tested on: NCI-H460 lung
OVCAR-3 ovarian = tested on: OVCAR-3 ovarian
OVCAR-4 ovarian = tested on: OVCAR-4 ovarian
OVCAR-5 ovarian = tested on: OVCAR-5 ovarian
OVCAR-8 ovarian = tested on: OVCAR-8 ovarian
RPMI-8226 leukemia = tested on: RPMI-8226 leukemia
RXF 393 renal = tested on: RXF 393 renal
RXF-631 renal = tested on: RXF-631 renal
SF-268 CNS = tested on: SF-268 CNS
SF-295 CNS = tested on: SF-295 CNS
SF-539 CNS = tested on: SF-539 CNS
SK-MEL-2 melanoma = tested on: SK-MEL-2 melanoma
SK-MEL-28 melanoma = tested on: SK-MEL-28 melanoma
SK-MEL-5 melanoma = tested on: SK-MEL-5 melanoma
SN12C renal = tested on: SN12C renal
SNB-19 CNS = tested on: SNB-19 CNS
SNB-75 CNS = tested on: SNB-75 CNS
SNB-78 CNS = tested on: SNB-78 CNS
SR leukemia = tested on: SR leukemia
SW-620 colon = tested on: SW-620 colon
TK-10 renal = tested on: TK-10 renal
UACC-257 melanoma = tested on: UACC-257 melanoma
UACC-62 melanoma = tested on: UACC-62 melanoma
UO-31 renal = tested on: UO-31 renal
XF 498 CNS = tested on: XF 498 CNS
COLO 205 colon = tested on: COLO 205 colon
NCI-H522 lung = tested on: NCI-H522 lung
SK-OV-3 ovarian = tested on: SK-OV-3 ovarian
U251 CNS = tested on: U251 CNS

Measured: TGI

O=C1/C(=C/c2ccc(Cl)cc2)CCC1CCN1CCOCC1 (stereo not given)
82.6 µM: MOLT-4 leukemia
64.4 µM: RPMI-8226 leukemia
85.2 µM: HL-60(TB) leukemia
> 100 µM: 786-0 renal | A498 renal | A549 NSCLC | ACHN renal | CAKI-1 renal | CCRF-CEM leukemia | DLD-1 colon | DMS 114 small cell lung | DMS 273 small cell lung | EKVX NSCLC | HCC-2998 colon | HCT-116 colon | HCT-15 colon | HOP-18 NSCLC | HOP-62 NSCLC | HOP-92 NSCLC | HT29 colon | IGROV1 ovarian | K-562 leukemia | KM12 colon | KM20L2 colon | LOX IMVI melanoma | LXFL 529 NSCLC | M14 melanoma | M19-MEL melanoma | MALME-3M melanoma | NCI-H226 lung | NCI-H23 lung | NCI-H460 lung | OVCAR-3 ovarian | OVCAR-4 ovarian | OVCAR-5 ovarian | OVCAR-8 ovarian | RXF 393 renal | RXF-631 renal | SF-268 CNS | SF-295 CNS | SF-539 CNS | SK-MEL-2 melanoma | SK-MEL-28 melanoma | SK-MEL-5 melanoma | SN12C renal | SNB-19 CNS | SNB-75 CNS | SNB-78 CNS | SR leukemia | SW-620 colon | TK-10 renal | UACC-257 melanoma | UACC-62 melanoma | UO-31 renal | XF 498 CNS

CN1CCOC(c2ccccc2)O1 (stereo not given)
> 100 µM: 786-0 renal | A498 renal | A549 NSCLC | ACHN renal | CAKI-1 renal | CCRF-CEM leukemia | COLO 205 colon | DLD-1 colon | DMS 114 small cell lung | DMS 273 small cell lung | EKVX NSCLC | HCC-2998 colon | HCT-116 colon | HCT-15 colon | HL-60(TB) leukemia | HOP-18 NSCLC | HOP-62 NSCLC | HOP-92 NSCLC | HT29 colon | IGROV1 ovarian | K-562 leukemia | KM12 colon | KM20L2 colon | LOX IMVI melanoma | LXFL 529 NSCLC | M14 melanoma | M19-MEL melanoma | MALME-3M melanoma | MOLT-4 leukemia | NCI-H226 lung | NCI-H23 lung | NCI-H460 lung | NCI-H522 lung | OVCAR-3 ovarian | OVCAR-4 ovarian | OVCAR-5 ovarian | OVCAR-8 ovarian | RPMI-8226 leukemia | RXF 393 renal | RXF-631 renal | SF-268 CNS | SF-295 CNS | SF-539 CNS | SK-MEL-2 melanoma | SK-MEL-28 melanoma | SK-MEL-5 melanoma | SK-OV-3 ovarian | SN12C renal | SNB-19 CNS | SNB-75 CNS | SNB-78 CNS | SR leukemia | SW-620 colon | TK-10 renal | U251 CNS | UACC-257 melanoma | UACC-62 melanoma | UO-31 renal

Cc1ccc(/C=C/C(=O)c2sc(-c3nc(C)c(C(=O)/C=C/c4ccc(C)cc4)s3)nc2C)cc1
> 100 µM: 786-0 renal | A498 renal | A549 NSCLC | ACHN renal | CAKI-1 renal | CCRF-CEM leukemia | COLO 205 colon | DLD-1 colon | DMS 114 small cell lung | DMS 273 small cell lung | EKVX NSCLC | HCC-2998 colon | HCT-15 colon | HL-60(TB) leukemia | HOP-18 NSCLC | HOP-62 NSCLC | HOP-92 NSCLC | HT29 colon | IGROV1 ovarian | K-562 leukemia | KM12 colon | KM20L2 colon | LOX IMVI melanoma | M19-MEL melanoma | MALME-3M melanoma | MOLT-4 leukemia | NCI-H226 lung | NCI-H23 lung | NCI-H460 lung | NCI-H522 lung | OVCAR-3 ovarian | OVCAR-5 ovarian | OVCAR-8 ovarian | RPMI-8226 leukemia | RXF 393 renal | RXF-631 renal | SF-268 CNS | SF-295 CNS | SF-539 CNS | SK-MEL-2 melanoma | SK-MEL-28 melanoma | SK-MEL-5 melanoma | SK-OV-3 ovarian | SN12C renal | SNB-75 CNS | SNB-78 CNS | SW-620 colon | TK-10 renal | U251 CNS | UACC-257 melanoma | UACC-62 melanoma | UO-31 renal

C/C(Cc1ccccc1)=N\NC(N)=S
> 100 µM: A498 renal | ACHN renal | CCRF-CEM leukemia | COLO 205 colon | DMS 114 small cell lung | DMS 273 small cell lung | HCT-15 colon | HL-60(TB) leukemia | HOP-18 NSCLC | HOP-92 NSCLC | IGROV1 ovarian | K-562 leukemia | KM20L2 colon | LOX IMVI melanoma | LXFL 529 NSCLC | M14 melanoma | M19-MEL melanoma | MOLT-4 leukemia | NCI-H23 lung | NCI-H460 lung | OVCAR-4 ovarian | RPMI-8226 leukemia | RXF 393 renal | RXF-631 renal | SF-539 CNS | SK-MEL-28 melanoma | SK-OV-3 ovarian | SN12C renal | SNB-19 CNS | SNB-75 CNS | SNB-78 CNS | U251 CNS | UACC-62 melanoma | XF 498 CNS

O=c1ccn([C@H]2CSC[C@@H](CO)C2)c(=O)[nH]1
> 100 µM: 786-0 renal | A498 renal | A549 NSCLC | ACHN renal | CAKI-1 renal | CCRF-CEM leukemia | DLD-1 colon | DMS 114 small cell lung | DMS 273 small cell lung | EKVX NSCLC | HCC-2998 colon | HCT-116 colon | HCT-15 colon | HL-60(TB) leukemia | HOP-18 NSCLC | HOP-62 NSCLC | HOP-92 NSCLC | HT29 colon | IGROV1 ovarian | K-562 leukemia | KM12 colon | KM20L2 colon | LOX IMVI melanoma | LXFL 529 NSCLC | M14 melanoma | M19-MEL melanoma | MALME-3M melanoma | MOLT-4 leukemia | NCI-H226 lung | NCI-H23 lung | NCI-H460 lung | NCI-H522 lung | OVCAR-3 ovarian | OVCAR-4 ovarian | OVCAR-5 ovarian | OVCAR-8 ovarian | RPMI-8226 leukemia | RXF-631 renal | SF-268 CNS | SF-539 CNS | SK-MEL-2 melanoma | SK-MEL-28 melanoma | SK-MEL-5 melanoma | SK-OV-3 ovarian | SN12C renal | SNB-19 CNS | SNB-75 CNS | SNB-78 CNS | SW-620 colon | TK-10 renal | U251 CNS | UACC-257 melanoma | UACC-62 melanoma | UO-31 renal

O=C(CCc1n[nH]c(=S)o1)Nc1ccccc1C(F)(F)F
49 µM: SW-620 colon
38.8 µM: HCT-15 colon
> 100 µM: 786-0 renal | A498 renal | ACHN renal | CAKI-1 renal | CCRF-CEM leukemia | COLO 205 colon | DLD-1 colon | DMS 114 small cell lung | DMS 273 small cell lung | EKVX NSCLC | HCC-2998 colon | HL-60(TB) leukemia | HOP-18 NSCLC | HOP-62 NSCLC | HOP-92 NSCLC | HT29 colon | IGROV1 ovarian | K-562 leukemia | KM12 colon | KM20L2 colon | LXFL 529 NSCLC | M14 melanoma | M19-MEL melanoma | MALME-3M melanoma | MOLT-4 leukemia | NCI-H226 lung | NCI-H23 lung | NCI-H460 lung | NCI-H522 lung | OVCAR-3 ovarian | OVCAR-4 ovarian | OVCAR-5 ovarian | OVCAR-8 ovarian | RXF-631 renal | SF-268 CNS | SF-295 CNS | SF-539 CNS | SK-MEL-28 melanoma | SK-MEL-5 melanoma | SK-OV-3 ovarian | SN12C renal | SNB-19 CNS | SNB-75 CNS | SNB-78 CNS | TK-10 renal | U251 CNS | UACC-257 melanoma | UACC-62 melanoma | UO-31 renal
85.1 µM: RPMI-8226 leukemia

From PubChem BioAssay (NCI)
